According to patent publication US20050027003A1, “Methods of therapeutic treatment using retinoids with reduced side effects” (Allergan, Inc., priority 2003, published 2005):

How the values were obtained:
[1] = tested on: AP1; assay: AP1 antagonism
[2] = tested on: patients with psoriasis; assay: Example 2: Phase 3 studies of oral tazarotene for psoriasis, adverse events (Table 1); assay type: in vivo, human; details: Taz 4.5 mg
Protocol: A series of Phase 3 studies are conducted on orally administered tazarotene for the treatment of psoriasis. Adverse events (side effects) are monitored. In addition, published data for acitretin's side effects are also considered.

[3] = tested on: patients; assay: Example 3: two placebo-controlled 24-week safety studies plus dose-response evaluations of oral tazarotene; assay type: in vivo, human; details: for incidence of patients discontinuing due to adverse effects: placebo 3%
Protocol: Two multicenter, double-blind, randomized, placebo-controlled 24-week studies of identical design are conducted to evaluate the safety of oral tazarotene. In addition, 16- to 24-week dose-response evaluations are performed.
In the two safety trials, the incidence of adverse side effects with a 4.5 mg dose administered orally once daily is compared to the incidence of the same side effects with a placebo. […] The majority of these were mild in severity and typical of adverse effects associated with oral retinoids.

[4] = tested on: patients with moderate to very severe plaque psoriasis; assay: Example 4: open-label extension study of oral tazarotene in plaque psoriasis; assay type: in vivo, human; details: 4.5 mg once daily
Protocol: Two multicenter, double-blind, placebo-controlled studies ware conducted to evaluate the efficacy and safety of oral tazarotene (4.5 mg once daily) in patients with moderate to very severe plaque psoriasis. […] Efficacy evaluations include overall lesional assessment (OLA), percent body surface area involvement, global response to treatment, plaque elevation, scaling, and erythema. OLA is graded on a 6-point scale (0=none, 1=minimal, 2=mild, 3=moderate, 4=severe, 5=very severe).

[5] = tested on: patients having nodulocystic acne; assay: Example 5: two placebo-controlled dose-ranging safety studies in nodulocystic acne; assay type: in vivo, human; details: for depression, patients: placebo 2%; for emotional lability, patients: placebo 4%
Protocol: Two placebo-controlled dose-ranging studies are conducted to evaluate the safety of oral tazarotene in patients having nodulocystic acne. In the first study, patients receive orally administered tazarotene at daily doses of 0.4 mg to 2.8 mg in 96 (71+25) patients (12 weeks treatment plus 12 weeks post-treatment). In the second study, daily doses of 0.75 mg to 6 mg tazarotene are administered to 181 patients (24 weeks treatment plus 12 weeks post-treatment).

[6] = tested on: patients with acne; assay: Example 6: studies of oral tazarotene for acne, adverse events (Table 2); assay type: in vivo, human; details: combined data from Studies 1 and 2 (N = 223)
Protocol: Studies are conducted on orally administered tazarotene for the treatment of acne. Adverse events (side effects) are monitored.

[7] = tested on: patient with severe psoriasis; assay: Example 9: patient with severe psoriasis taking Ortho-Novum, tazarotene 6 mg per day; assay type: in vivo, human; details: after 30 days
Source text: The patient presents symptoms of severe psoriasis. The symptoms include lesions approximately 4 to 10 centimeters across appearing as raised patches of wine red skin many of which are covered in silvery white scales. The lesions are mostly dry and rough, and quite often noticeably warm to the touch. The lesions are present on the elbows, knees, scalp, and groin area. The patient experiences intense burning and itching associated with the lesions.
The patient is currently taking Ortho-Novum® for contraception.
Tazarotene at a dose of 6 mg per day is prescribed.

[8] = tested on: patients with moderate to very severe plaque psoriasis; assay: Example 4: open-label extension study of oral tazarotene in plaque psoriasis; assay type: in vivo, human; details: 4.5 mg once daily, 12 weeks, across both groups
[9] = Study 3, treated with Tazarotene for 3 months (N = 220)
[10] = Study 3, treated with Tazarotene for 6 months (N = 92)
[11] = combined data from Studies 1 and 2 (N = 348)

What does the source list for CCOC(=O)c1ccc(C#Cc2ccc3c(c2)C(C)(C)CCS3)nc1 [tazarotene]?
AP1 antagonism [1]: potent; Adverse event: Alopecia [2, 9]: 1 (0.5) number (%) of patients; Adverse event: Arthralgia [2, 9]: 28 (12.7) number (%) of patients; Adverse event: Atrophy of skin [2, 9]: 0 (0.0) number (%) of patients; Adverse event: Back pain [2, 9]: 7 (3.2) number (%) of patients; Adverse event: Cheilitis [2, 9]: 149 (67.7) number (%) of patients; Adverse event: Dry Skin [2, 9]: 47 (21.4) number (%) of patients; Adverse event: Dry mouth/Oral dryness [2, 9]: 11 (5.0) number (%) of patients; Adverse event: Epistaxis [2, 9]: 1 (0.5) number (%) of patients; Adverse event: Erythematous rash/Erythema [2, 9]: 0 (0.0) number (%) of patients; Adverse event: Hyperesthesia [2, 9]: 0 (0.0) number (%) of patients; Adverse event: Nail Disorder [2, 9]: 1 (0.5) number (%) of patients; Adverse event: Paresthesia [2, 9]: 3 (1.4) number (%) of patients; Adverse event: Paronychia/Nail disorder [2, 9]: 1 (0.5) number (%) of patients; Adverse event: Pruritus [2, 9]: 11 (5.0) number (%) of patients; Adverse event: Rhinitis [2, 9]: 0 (0.0) number (%) of patients; Adverse event: Rigors/Chills [2, 9]: 1 (0.5) number (%) of patients; Adverse event: Skin peeling/Desquamation [2, 9]: 3 (1.4) number (%) of patients; Adverse event: Sticky skin/Skin disorder [2, 9]: 0 (0.0) number (%) of patients; Adverse event: Xerophthalmia/Eye disorder [2, 9]: 3 (1.4) number (%) of patients; Adverse event: Alopecia [2, 10]: 5 (5.4) number (%) of patients; Adverse event: Arthralgia [2, 10]: 30 (32.6) number (%) of patients; Adverse event: Atrophy of skin [2, 10]: 0 (0.0) number (%) of patients; Adverse event: Back pain [2, 10]: 10 (10.9) number (%) of patients; Adverse event: Cheilitis [2, 10]: 65 (70.7) number (%) of patients; Adverse event: Dry Skin [2, 10]: 24 (26.1) number (%) of patients; Adverse event: Dry mouth/Oral dryness [2, 10]: 2 (2.2) number (%) of patients; Adverse event: Epistaxis [2, 10]: 0 (0.0) number (%) of patients; Adverse event: Erythematous rash/Erythema [2, 10]: 0 (0.0) number (%) of patients; Adverse event: Hyperesthesia [2, 10]: 0 (0.0) number (%) of patients; Adverse event: Nail Disorder [2, 10]: 1 (1.1) number (%) of patients; Adverse event: Paresthesia [2, 10]: 1 (1.1) number (%) of patients; Adverse event: Paronychia/Nail disorder [2, 10]: 1 (1.1) number (%) of patients; Adverse event: Pruritus [2, 10]: 3 (3.3) number (%) of patients; Adverse event: Rhinitis [2, 10]: 0 (0.0) number (%) of patients; Adverse event: Rigors/Chills [2, 10]: 1 (1.1) number (%) of patients; Adverse event: Skin peeling/Desquamation [2, 10]: 1 (1.1) number (%) of patients; Adverse event: Sticky skin/Skin disorder [2, 10]: 0 (0.0) number (%) of patients; Adverse event: Xerophthalmia/Eye disorder [2, 10]: 1 (1.1) number (%) of patients; Adverse event: Alopecia [2, 11]: 1 (0.3) number (%) of patients; Adverse event: Arthralgia [2, 11]: 60 (17.2) number (%) of patients; Adverse event: Atrophy of skin [2, 11]: 0 (0.0) number (%) of patients; Adverse event: Back pain [2, 11]: 16 (4.6) number (%) of patients; Adverse event: Cheilitis [2, 11]: 228 (65.5) number (%) of patients; Adverse event: Dry Skin [2, 11]: 82 (23.6) number (%) of patients; Adverse event: Dry mouth/Oral dryness [2, 11]: 11 (3.2) number (%) of patients; Adverse event: Epistaxis [2, 11]: 2 (0.6) number (%) of patients; Adverse event: Erythematous rash/Erythema [2, 11]: 2 (0.6) number (%) of patients; Adverse event: Hyperesthesia [2, 11]: 0 (0.0) number (%) of patients; Adverse event: Nail Disorder [2, 11]: 2 (0.6) number (%) of patients; Adverse event: Paresthesia [2, 11]: 7 (2.0) number (%) of patients; Adverse event: Paronychia/Nail disorder [2, 11]: 2 (0.6) number (%) of patients; Adverse event: Pruritus [2, 11]: 21 (6.0) number (%) of patients; Adverse event: Rhinitis [2, 11]: 8 (2.3) number (%) of patients; Adverse event: Rigors/Chills [2, 11]: 9 (2.6) number (%) of patients; Adverse event: Skin peeling/Desquamation [2, 11]: 3 (0.9) number (%) of patients; Adverse event: Sticky skin/Skin disorder [2, 11]: 1 (0.3) number (%) of patients; Adverse event: Xerophthalmia/Eye disorder [2, 11]: 8 (2.3) number (%) of patients; incidence of patients discontinuing due to adverse effects ([3]; 4.5 mg (n=348)): 3%; incidence of hypertriglyceridemia, hypercholesterolemia, abnormal liver function tests, increased alanine aminotransferase, increased aspartate aminotransferase, desquamation, eye dryness, alopecia ([3]; 4.5 mg orally once daily vs placebo): essentially the same incidence; incidence of patients discontinuing due to adverse effects ([3]; 6.3 mg (n=16)): 13%; incidence of patients discontinuing due to adverse effects ([3]; 0.4 to 1.1 mg (n=105)): approximately 2%; incidence of patients discontinuing due to adverse effects ([3]; 2.1 to 2.8 mg (n=21)): 10%; incidence of patients discontinuing due to adverse effects ([3]; (n=14)): 0%; changes in liver function test values or cholesterol levels [4]: no clinically significant changes; serious adverse events considered related to the study treatment [4]: no serious adverse events; incidence of arthralgia ([4]; 12 weeks, across both groups): 20%; incidence of asthenia ([4]; 12 weeks, across both groups): 6%; incidence of back pain ([4]; 12 weeks, across both groups): 11%; incidence of cheilitis ([4]; 12 weeks, across both groups): 70%; incidence of hypertriglyceridemia ([4]; 12 weeks, across both groups): 6%; incidence of myalgia ([4]; 12 weeks, across both groups): 15%; changes in urinalysis, chemistry, or hematology measures (incl. liver function tests, triglycerides, total cholesterol, HDL cholesterol) ([5]; 0.4 mg to 6 mg daily): no consistent dose-related clinically significant changes; ligament calcification, osteophyte formation, changes in serum bone alkaline phosphatase, serum amino terminal telopeptides, bone density ([5]; 0.4 mg to 6 mg daily): not associated with any clinically significant; depression, patients ([5]; 3 mg group (2 mild, 1 severe)): 8%; emotional lability, patients ([5]; 3 mg group): 3%; depression, patients ([5]; 6 mg group): none; emotional lability, patients ([5]; 6 mg group): 14%; dry skin, severe ([5]; all groups): No patient; Adverse event: Cheilitis [6]: 134 (60.1) number (%) of patients; Adverse event: Conjunctivitis [6]: 0 (0.0) number (%) of patients; Adverse event: Desquamation central face/Desquamation [6]: 1 (0.4) number (%) of patients; Adverse event: Dry Skin [6]: 79 (35.4) number (%) of patients; Adverse event: Dry nose [6]: 7 (3.1) number (%) of patients; Adverse event: Epistaxis [6]: 6 (2.7) number (%) of patients; Adverse event: Fingertip peeling/Desquamation [6]: 1 (0.4) number (%) of patients; Adverse event: Headache [6]: 26 (11.7) number (%) of patients; Adverse event: Irritation of eyes [6]: 0 (0.0) number (%) of patients; Adverse event: Joint pain/Arthralgia [6]: 18 (8.1) number (%) of patients; Adverse event: Peeling/Desquamation [6]: 1 (0.4) number (%) of patients; Adverse event: Pruritus [6]: 10 (4.5) number (%) of patients; Adverse event: Rash-dermatitis/Rash [6]: 7 (3.1) number (%) of patients; Adverse event: Red Scaly face/Desquamation [6]: 1 (0.4) number (%) of patients; Adverse event: Skin fragility/Skin disorder [6]: 1 (0.4) number (%) of patients; severity of lesions [7]: substantially lessened; symptoms of itching and burning [7]: relieved; incidence of dry skin [8]: 25%; incidence of headache [8]: 11%; incidence of infection [8]: 10%
